# Data: US11267809B2, “BAF complex modulating compounds and methods of using the same” (THE BOARD OF TRUSTEES OF THE LELAND STANFORD JUNIOR …, priority 2017, dated 2022)
# Like-named read-outs stand apart in the source and are kept apart here.
# Experiments:
# HCT116 cells [1] = assay: Synergy viability assay (CellTitre blue, 5 days), HCT116 ARID1A(+/+); assay type: cell-based, human; conditions: for average combination index (CI) of putative inhibitor: with VE-821 (1-30 uM) and putative inhibitor (1-30 uM); for average combination index (CI) of putative inhibitor / average combination index (CI) of TOP2 inhibitor / IC50: 5 days; for average combination index (CI) of TOP2 inhibitor: with VE-821, ARID1A(+/+); for IC50: Homo sapiens, HCT-116, 120 h, read-out: VE-821 IC50 in combination with BAFi
# Description: To assess drug synergy, the Chou-Talalay method was employed to provide a mechanism-independent method to quantify the synergism of drug interactions. This method combines elements of the Scatchard, Michaelis-menten, Hill, and Henderson-Hasslebalch equations through the law of mass-action^31,32 to generate a quantifiable assessment of synergy. Molecules were tested both independently and then in 25 different combinations in HCT116 cells for 5 days as described above. To determine a combination index (CI), median-effect equations of the two respective molecules were determined from their respective dose responses. The median-effect equation was used to calculate a median-effect dose, and (Dx)ATRi,BAFi values which correspond for the respective doses of the BAFi and ATRi compounds and correlate with a given percentage of cells affected by the individual treatments. Normalized index values (IATRi, IBAFi), and the combination index are a ratio between the treatment dose, and the Dx for a given fraction of affected cells. Combination indices less than 0.9 are considered synergistic, while values ranging from 0.9 to 1.1 are additive, and CIs above 1.1 are antagonistic.
# (§1) Viability assays were performed in 384-well plates. Cells were plated at 500 cells/well. Each drug was administered in 5-doses with 4 replicates per plate, and each 5×5 drug combination was administered with 8 replicates per plate, 24 hours after seeding. All error bars represent 4 or 8 technical replicates averaged over 3 independent experiments. Media containing fresh drug was replaced every 48 hours. After 5 days, cellular viability was measured using CellTitre blue, as described by the manufacturer.
# [2] = test system: HCT116 (ARID1A−/−) cell line; assay: Synergy viability assay, HCT116 ARID1A(-/-); assay type: cell-based, human; conditions: for average combination index (CI) of TOP2 inhibitor: with VE-821, ARID1A(−/−), 5 days
# Text: (§2) SMARCA4, the primary target of our original screen, is present in both human BAF and PBAF complexes in cancer^12. PBAF complexes differ from BAF complexes by incorporation of specific subunits. Specifically, PBAF complexes contain ARID2 (as opposed to ARID1A/B), PHF10 (BAF45a) (as opposed to […] (BAF45d)), PBRM1, and lack the BAF-specific subunit SS18. PBAF specific subunits are also frequently mutated in cancer, specifically renal clear cell carcinomas and cholangiocarcinomas^33-36. To assess whether the lead compound is targeting BAF, PBAF complexes, or both, we constitutively knocked down ARID1A or ARID2 by lentiviral transduction of HCT116 cells and compared the BAFi/ATRi synergy to the wild-type (ARID1A+/+).
# Isogenic HCT116 ARID1A(+/+) and ARID1A(−/−) cell lines were originally obtained from Horizon Discovery. MCF-7, Cal-51, A-704, and MDA-MB-436, MDA-MB-468, HCC1143, HCC1187, HCC1954, and ACHN cell lines were obtained from American Type […]. All cell lines were grown in McCoy's 5a Media supplemented with 10% FBS.
# as §1
# [3] = test system: HCT116 cells infected with shRNA lentivirus targeting ARID1A; assay: Synergy viability assay, HCT116 with shARID1A knockdown; assay type: cell-based, human; conditions: single agent, 5 continuous days
# Text: as §2, with “(ARID1A+/+). […] Further, upon knockdown of ARID1A or ARID2 (FIG. 3b), the synergistic effect observed between Baficillin1 and VE-821 was ablated upon loss of ARID1A (FIG. 3e) (CIshARID1A=1.48±0.14), but not loss of shARID2 (CIshARID2=0.42±0.04) (FIG. 3c-e).” for “(ARID1A+/+).”
# as §1
# Lentiviruses were produced in Lenti-X 293T cells (Clonetech) via spinfection with polyethylenimine transfection. 293T-x cells were transfected with PEI (Polysciences Inc., 24765) with lentiviral PLKO shARID1A or GIPZ shARID2 knockdown vectors, co-transfected with packaging vectors pspax2 and pMD2.G as previously described^49. PLKO shRNA construct targeting ARID1A (TRCN0000059090: shRNA-2) was obtained^50 and GIPZ Human ARID2 shRNA was purchased from Dharmacon (CloneId:V2LHS_74399). […]
# HCT116 cells [4] = conditions: 5 days of treatment, before ARID1A deletion, read-out: IC50 of VE-821; cited from earlier work
# [5] = test system: HCT116 cells, ARID1A deleted; conditions: HCT116 cells upon deletion of ARID1A, 5 days of treatment; read-out: IC50 of VE-821; cited from earlier work
molecule,measurement,setting,value
"CCc1nc(N)nc(N)c1-c1ccc(Cl)cc1 [Chloroidine, Pyrimethamine]",average combination index (CI) of putative inhibitor,HCT116 cells [1],1.3±0.18
COc1cccc2c1C(=O)c1c(O)c3c(c(O)c1C2=O)C[C@@](O)(C(=O)CO)C[C@@H]3O[C@H]1C[C@H](N)[C@H](O)[C@H](C)O1 [Doxorubicin],average combination index (CI) of TOP2 inhibitor,[2],0.95±0.06
same,average combination index (CI) of TOP2 inhibitor,HCT116 cells [1],0.87±0.07
COc1ccc2c(C)nc(Nc3nc(C)c(C)c(=O)[nH]3)nc2c1 [Madrasin],average combination index (CI) of putative inhibitor,HCT116 cells [1],1.4±0.04
O=C(/C=C/N1C[C@H]2C[C@@H]1CN2c1ccccn1)c1ccccc1O [PFI-3],individual dose-response or synergy with VE-821,[2]; ARID1A(−/−) condition,no measurable individual dose-response or synergy effects
same,individual dose-response or synergy with VE-821,"HCT116 cells [1]; ARID1A(+/+) condition, as treated in FIG. 4c",no measurable individual dose-response or synergy effects
CS(=O)(=O)c1ccc(-c2cnc(N)c(C(=O)Nc3ccccc3)n2)cc1 [VE-821],sensitivity (cell survival) compared to wild-type HCT116,"[2]; single agent, 5 continuous days",increased sensitivity
same,sensitivity (cell survival) compared to wild-type HCT116,[3],increased sensitivity
same,IC50,HCT116 cells [4],~10 µM
same,IC50,[5],~1000 nM
same,IC50,HCT116 cells [1]; highest dose of BAFi (Baficillin1) tested in combination,~1000 nM
same,IC50,HCT116 cells [1]; lowest dose of BAFi (Baficillin1) 1.25 uM,~4000 nM
CC(Oc1ccc(Oc2cnc3ccc(Cl)cc3n2)cc1)C(=O)O (stereo not shown) [XK469],average combination index (CI) of TOP2 inhibitor,[2],0.85±0.09
same,average combination index (CI) of TOP2 inhibitor,HCT116 cells [1],0.75±0.05
ICRF-193,average combination index (CI) of TOP2 inhibitor,[2],0.82±0.08
same,average combination index (CI) of TOP2 inhibitor,HCT116 cells [1],1.0±0.05
